SMILES | melting point [°C]
CCN1CC(=O)N(c2cc(Cl)ccc2OC)C1=S | 171 to 174
O=C1C(=Cc2ccco2)CCc2cc(OCCn3ccnc3)ccc21 | 109 to 110
COC(=O)c1cc(OC)c(N(C)C(C)=O)c(OC)c1 | 115 to 116
c1ccc2c(c1)ncc1ncsc12 | 114 to 116
O=C(O)CCCOc1cccc(C2CCCCC2)c1 | 83 to 84
Cc1ccc2oc(=O)n(-c3ccnc(N)c3)c2c1 | 173 to 174
CCOC(=O)C1=Cc2c(F)cccc2OC1C(F)(F)F (stereo not drawn) | 45.5 to 47
O=C1CCNC(=O)C1C(=O)c1ccccc1 (stereo not drawn) | 164 to 165
CCCc1c(OCC(O)COc2ccc3c(=O)cc(C(=O)O)sc3c2CCC)ccc(C(C)=O)c1O (stereo not drawn) | 280 to 281
CCCCCS(=O)(=O)NC(=O)CCc1cc(C(C)C)nn1Cc1ccc(C(F)(F)F)cc1Cl | 144 to 145
Cc1nn(C)c(=O)n1-c1ccc([N+](=O)[O-])cc1 | 153
c1cc(N=Nc2ccncc2)ccn1 | 87 to 89
CSc1ccc(C)cc1[N+](=O)[O-] | 71 to 73
CC(O)(c1cccc(C(F)(F)F)c1)c1cc(Cl)ccc1O (stereo not drawn) | 115
Nc1nc2c(ncn2C2CC(CO)C(O)C2F)c(=O)[nH]1 (stereo not drawn) | 266 to 269
Cc1cc(F)ccc1NC(=O)CCC#Cc1cccc(CF)n1 | 122 to 125
CNC(=O)Nc1ccc(C2=NNC(=O)CC2C)cn1 (stereo not drawn) | 257 to 259
OCc1nc(/C=C/c2ccccc2)ns1 | 119 to 120
CC(=O)OCC(C)(CC(C)(C)C)C(=O)O (stereo not drawn) | 89.5 to 90.5
COc1cc(CCl)c(CCNC(=O)C(F)(F)F)cc1OC | 140
CCCOc1ccccc1-c1nc(N)cc(=O)[nH]1 | 184
O=C(Nc1cc(Cl)c([N+](=O)[O-])cc1O)c1ccccc1 | < 250

SMILES | melting point [°C]
CC(C)(C)OC(=O)N1C[C@@H]2OCc3c(-c4cccc(F)c4)nnn3[C@H]2C1 | 249 to 250
CNC(=O)[C@H](NC(=O)c1ccc(F)cc1C(F)(F)F)[C@@H](CNC(C)=O)c1ccccc1 (racemic) | 199
Cc1cc(C#N)cc(CC#N)c1 | 63 to 64
CCCOc1nc2ccc(Cl)cc2c(=O)n1CCC | 64 to 66
Cc1cc(C)nc(NC(=O)NS(=O)(=O)c2ccsc2C(=O)O)n1 | 127
Cc1ccc2c(c1)C(c1ccccc1)(C(F)(F)F)c1cc(C)ccc1O2 | 150 to 151
CCCn1cc2c(C3C(=O)Nc4ccc(Br)cc43)nc(NCC3CCCN3)nc2n1 (stereo not drawn) | 286 to 293
c1cn(-c2ccnc(-n3ccnc3)n2)cn1 | 131 to 132
C/C(=C(\C#N)C(N)=S)N1CCCOCC1 | 151 to 156
CN(C)C1CCC2(CC1)Nc1cc(Cl)c(S(N)(=O)=O)cc1S(=O)(=O)N2 (stereo not drawn) | 255
CCC1(CC)Nc2ccccc2-c2c([N+](=O)[O-])cnn21 | 132 to 134
CCn1nc2c(OC)nc3ccccc3c2c1CO | 219 to 220
CCOC(=O)C1CCNC1=O (stereo not drawn) | 74.5 to 75.5
Cn1nc(Cl)c(C2=NOCCO2)c1S(N)(=O)=O | 158
CCNC(=O)Nc1ccc(C#Cc2ccc(N3CC4CCC(C3)N4C)nn2)cc1 | 269
CC(C)OC(=O)C(C(=O)Nc1ccccc1)=C1SCS1 | 115 to 116
CCOC(=O)c1[nH]c2c(O)cccc2c1C | 187 to 190
CCCCc1nc2cc(F)ccc2n1Cc1ccc(C(=O)O)cc1 | 202 to 204
CCCCc1nc2c(N)nc3ccccc3c2n1CCOCCON=C(C)C | 116 to 118
Cc1nc(N)nc(N)c1N=Nc1cccc(Cl)c1 | 249
COc1nc2cc(Cl)c(Cl)cc2nc1OC | 144 to 146
CSc1cc(C)nc(SC)c1NC(=O)CSc1nc2ccccc2o1 | 203 to 205

SMILES | melting point [°C]
CC(C)(C)C(=O)Cn1cncn1 | 62 to 64
Cc1cc(C#N)cc(C(=O)Nc2cccc(F)c2)n1 | 139
COC(=O)COc1noc2ccc([N+](=O)[O-])cc12 | 72 to 73.5
COc1cc(OC)nc(Oc2cccc3c2C(=O)SC3C)n1 (stereo not drawn) | 157 to 159
CN(C)CCn1c(=O)c2ccc(N)cc2c2cnc3cc4c(cc3c21)OCO4 | 300 to 301
C#CCn1c(C(F)(F)F)c(C=O)c2ccccc21 | 106
C=C(C)C(=O)OCCCCOC(=O)/C=C/c1ccc(OC(=O)c2ccc(OC)cc2)cc1 | 89 to 90
CC(C)(c1cc(F)ccc1O)c1cc(Cl)ccc1O | 125
CS(=O)(=O)N1CCN(C(=O)Cl)C1=O | 178
CCCNC(=O)Nc1ccc2c(c1)NC(=O)C2(C)C | 223 to 225
CN(c1ccc(Cl)nc1)S(C)(=O)=O | 87 to 90
CCn1cnc2cc(C(F)(F)F)c(Cl)c(N)c21 | 192 to 193
Cc1ccc(C(=O)CBr)cc1S(N)(=O)=O | 146 to 148
CN1CCC(OC2c3ccccc3CC(C)(C)n3cc(-c4ccccc4)nc32)CC1 (stereo not drawn) | 85
Cc1noc(C)c1C(=O)Nc1ccc(-n2nccc2C)cc1 | 151 to 152
CCOC(=O)c1ccc2cnccc2n1 | 106 to 108
NC(=O)/C=C/c1ccc(F)cc1 | 130
CCCCCCCCCCCCCc1c[nH]c(C(=O)OCC)c1 | 59 to 60
Cc1ccc(Oc2ccc(C(=N)NN)cc2)c(O)c1 | > 260
C#Cc1cccc(Nc2ncnc3cc(OCCOC)c(OCCOC(C)=O)cc23)c1 | 84 to 87
CN1CCC2(C)c3cc(O)cc([N+](=O)[O-])c3N(C)C12 (stereo not drawn) | 170 to 171

Further lines, results first:

melting point [°C] | SMILES
113 to 115 | CC(=O)Oc1cc(-c2ccccc2)oc(=O)c1Sc1ccccc1C(C)C
120 to 123 | Cn1c(C(=O)NCCCNC2CCCCC2)ccc1-c1nc(-c2cccc(C(F)(F)F)c2)cs1
174 | CCc1nc2cc(COC)c(Cl)cc2n1-c1ccc(CCOC(=O)NS(=O)(=O)c2ccc(C)cc2)cc1
255 to 257 | Cc1ccc(C(=S)C2CCC3C4CCc5cc(C(=O)O)ccc5C4CCC23C)cc1 (stereo not drawn)
164 to 168 | CCOC(=O)c1c(C2CC2)nn(CC)c1Cc1ccc(-c2ccccc2-c2nnn(C(c3ccccc3)(c3ccccc3)c3ccccc3)n2)cc1
112 to 115 | CS(=O)(=O)c1ccc(-n2cc(C(F)(F)F)nc2-c2ccc(-c3cscn3)cc2)cc1F
103 to 105 | c1cc(CN2CCCCC2)cc(OCCCNc2nccc3ccccc23)c1
211 to 217 | O=C(O)CCCc1cc2nc(Cl)ccc2n1S(=O)(=O)c1ccc(-c2cscn2)cc1
247 to 249 | O=C(O)C(OCCC1CCN(c2ccncc2)CC1)Oc1ccccc1 (stereo not drawn)
109 | N#Cc1c(CNC(=O)C2(S(=O)(=O)c3ccc(Cl)cc3)CCCC2)nn(-c2ccccc2Cl)c1-c1ccc(Cl)cc1
188 to 190 | O=C(c1ccc([N+](=O)[O-])cc1)N1Cc2cccn2Cc2ccccc21
196 to 199 | Cn1cccc1C(=O)C(C#N)C(=O)Nc1c(Cl)cccc1Cl (stereo not drawn)
205 to 206 | COc1ccc(Br)c(OC)c1-c1ccc(C[C@H](NC(=O)c2c(Cl)cccc2Cl)C(=O)O)cc1
214 to 215 | CC(C)(C)c1cc(CCc2ccccc2NC(=O)NCc2ccncc2)cc(C(C)(C)C)c1O
202 | CS(=O)(=O)c1c(CC(=O)O)n(Cc2ccc(Cl)cc2)c2ccc(F)cc12
216 to 217 | CCc1ccc(N2CCN(Cc3c[nH]c4ncccc34)CC2)cc1
125 | N#Cc1ccccc1Oc1ccc(-c2cn(C3CCOCC3)c3ncnc(N)c23)cc1
137 to 138 | COc1ccc(S(=O)(=O)C(c2cnc(C(=O)NCCO)cc2C)c2cc(F)ccc2F)cc1F (stereo not drawn)
162 to 163 | CCCCc1nc(Cl)c(CO)n1Cc1ccc(-c2cccc(C(=O)OC)c2)cc1

melting point [°C] | SMILES
230 | CN(C)C(=O)Nc1cccc(-c2nc(=O)c3ccccc3s2)n1
217 to 218 | Cc1nc2c(cc1C#CCO)c(=O)c(C(=O)NCc1ccc(Cl)cc1)cn2C
160 to 161 | Cc1ccc(Sc2nc(-c3ccc(Cl)cc3)c(CCC(=O)O)o2)cc1
87 to 89 | CCCCC(NS(=O)(=O)c1ccc(Cl)cc1)C(=S)Nc1ccc(CCC(=O)OC)cc1 (racemic)
110 to 112 | CCc1coc(=O)n1C(=O)c1ccccc1Cl
139 to 140 | CCOC(=O)c1cc([N+](=O)[O-])ccc1OCc1ccc2ccccc2n1
218 to 219 | CN1CCC(c2c(O)cc(O)c3c(=O)cc(-c4ccccc4Cl)oc23)C1CN (stereo not drawn)
78 to 80 | COC(=O)C(C)(C)OCC#Cc1cc(Cl)ccc1NS(=O)(=O)c1cc(C)cc(C)c1
235 to 237 | O=C(NN=C1c2ccc(F)cc2CC1(O)c1ccc(F)cc1)Nc1ccc(Br)cc1 (stereo not drawn)
97 to 98 | COC(=O)c1ccc(Oc2cc(-n3nc(C)n(C(F)F)c3=O)c(F)cc2Cl)cc1
58.9 | [N-]=[N+]=N[C@@H]1CN2C(=O)N(c3cc(Cl)cc(Cl)c3)C(=O)[C@]2(Cc2ccc(Br)cc2)C1
114 to 116 | COc1ccc(N(CCCC(=O)O)C(=O)c2ccc(Cl)cc2)cc1-c1ccccc1
190 to 191 | CCc1nc(CCc2ccc(NC(=O)/C=C/c3cnn(C)c3-c3ccc(F)cc3)cc2)cs1
191 to 193 | CCC(OC(=O)CO)c1ccc(Cl)c2nc3n(c12)CCCN3c1ccc(Cl)cc1Cl (stereo not drawn)
219 to 221 | Cc1ccn(Cc2ccc(Cl)c(Cl)c2)c(=O)c1C(=O)O
81 to 82 | N=C(Nc1cccc(NC(=O)CNC(=O)OCc2ccccc2)c1)N1CCCC1
199 to 200 | O=C(O)Cc1cn(CCc2ccc(OCc3ccccc3)cc2)nc1-c1ccccc1
158 to 160 | Cc1nc(-c2ccc(C(F)(F)F)cc2)oc1CSc1ccc(CC(=O)O)cc1Cl
162 to 164 | COc1cc2c(Nc3ccc(Sc4nccn4C)c(Cl)c3)c(C#N)cnc2cc1-c1csc(CN2CCN(C)CC2)c1

Source: a melting point compilation (Tetko et al.; mined from patent text by program, amines drawn as free bases though some values may be those of a salt)
